Measurements from patent US8367666B2 (priority 2004, dated 2013).
Read-outs that look alike come from different tables or passages of the source.

How the values were obtained:
[1] = biological target: T1, CB2 receptor (Homo sapiens, UniProt P34972); test: Human cannabinoid receptor bonding inhibition test ([3H]CP55940), CB2; format: binding; set-up: expressed in transfected cells; membrane fraction
[2] = biological target: T2, CB1 receptor (Homo sapiens, UniProt P21554); test: Human cannabinoid receptor bonding inhibition test ([3H]CP55940), CB1; format: binding; set-up: expressed in transfected cells; membrane fraction
T2 sequence (P21554 whole entry): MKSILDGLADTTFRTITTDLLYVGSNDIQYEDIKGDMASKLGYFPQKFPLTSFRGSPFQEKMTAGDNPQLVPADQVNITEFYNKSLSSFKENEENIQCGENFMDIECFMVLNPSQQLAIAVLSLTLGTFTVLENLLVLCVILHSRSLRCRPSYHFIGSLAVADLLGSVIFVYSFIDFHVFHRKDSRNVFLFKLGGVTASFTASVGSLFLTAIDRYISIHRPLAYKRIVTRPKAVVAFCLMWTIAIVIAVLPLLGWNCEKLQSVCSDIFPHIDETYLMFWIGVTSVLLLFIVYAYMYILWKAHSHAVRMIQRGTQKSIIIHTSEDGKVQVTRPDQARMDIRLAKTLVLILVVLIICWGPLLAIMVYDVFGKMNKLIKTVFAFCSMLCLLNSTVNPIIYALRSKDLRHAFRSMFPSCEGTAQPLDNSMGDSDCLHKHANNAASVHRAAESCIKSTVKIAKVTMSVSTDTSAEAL

[3] = biological target: T1, CB2 receptor; test: cAMP formation inhibition experiment through a cannabinoid receptor (forskolin stimulation), CB2; format: cell-based; set-up: expressed in transfected cells; host or cells: CHO cells
[4] = biological target: T2, CB1 receptor; test: cAMP formation inhibition experiment through a cannabinoid receptor (forskolin stimulation), CB1; format: cell-based; set-up: expressed in transfected cells; host or cells: CHO cells
Method: A compound being tested was added in the CHO cell which had mad human CB1 or CB2 receptor reveal and incubated for 15 minutes, and then forskolin (the final concentration 4 μM, and manufactured by SIGMA Corp.) was added and the mixture was incubated for 20 minutes. After the reaction had been stopped by adding 1M hydrochloric acid, the amount of cAMP in the supernatant was measured with the use of Cyclic AMP kit (made by the CIS Diagnostic Corp.).

[5] = system: scratching action induced by Compound 48/80; test: Anti-pruritic activity test by application (Compound 48/80 scratching); format: in vivo, mouse (Crj:CD-1 (ICR)); settings: topical, read-out: Itching inhibition ratio % (Concentration %)
Method: 1) Preparation of the compound and the reagent: The compound being tested was dissolved in acetone (SIGMA). Compound 48/80 (SIGMA) was dissolved in physiological saline (m by Otsuka Pharmaceutical Co., Ltd.) so as to be 60 μg/mL.
2) Animals: Female Crj: CD-1 (ICR) mice of 6 to 10 age in week (Japan Charles Liver) were used as laboratory animals. The animals were fed in the barrier breeding room where […] in room temperature, 30 to 70% in humidity, and the light and shade condition existed every 12 hours and feed (CE-2: Japan Crea) and the drinking water were freely taken. The hair of dorsa (from the cervical region of the back to the center of the back) of the animals were cut with a hair clipper two days or more before the anti-pruritic activity is evaluated, those with no wound, rubefaction, and thickening of the skin on the dehaired part were chosen and supplied to the experiment on the day of the evaluation. 3) Evaluation procedures: The acetone solution of the compound being tested was applied by 50 μL on the dehaired parts of the mice with a pipeter. On the mice of the control group, 50 μL of acetone was applied. The 15 minutes later, 50 μL (corresponding to 3 μg) of Compound 48/80 solution was injected intradermally in the compound applied parts with the use of a injector (Terumo Corporation), the mice were individually put in five observation cages made of acrylate resin at once, and the scratching action (action of scratching the injection part by the hind leg) frequency during 30 minutes was measured. The evaluation was carried out in one group of 5 to 7 mice. 4) Data processing: The experiment results were shown by the mean values. The test of the significant difference of the compound applying group to the control group was conducted with Welch's t-test, and p<0.05 was assumed to be significant.

[6] = [3H]CP55940 0.5 nM, membrane preparation of CHO cells expressing CB1, Ki calculated from IC50, read-out: Binding activity (nM) CB1
[7] = read-out: Agonist activity (nM) CB1
[8] = [3H]CP55940 0.5 nM, membrane preparation of CHO cells expressing CB2, Ki calculated from IC50, read-out: Binding activity (nM) CB2

T1 sequence (P34972 whole entry): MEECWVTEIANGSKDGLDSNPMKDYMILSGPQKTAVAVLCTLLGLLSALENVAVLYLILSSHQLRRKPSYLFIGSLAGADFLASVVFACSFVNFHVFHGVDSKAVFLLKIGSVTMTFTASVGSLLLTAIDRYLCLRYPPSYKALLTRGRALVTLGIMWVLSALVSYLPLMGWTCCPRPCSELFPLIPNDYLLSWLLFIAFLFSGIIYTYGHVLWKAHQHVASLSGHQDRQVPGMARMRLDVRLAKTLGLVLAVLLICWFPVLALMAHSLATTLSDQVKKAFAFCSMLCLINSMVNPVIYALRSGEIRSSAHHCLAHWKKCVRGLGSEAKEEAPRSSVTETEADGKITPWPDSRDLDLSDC

Compound: C/C=C/C(CC(=O)O)NC(=O)c1cc2c(n(CC3CCCCC3)c1=O)CCCCCC2 (centres unmarked) [II-075]
- Ki [1]: 48 nM
- Ki [2, 6]: 652 nM
- IC50 [3]: 4.6 nM
- IC50 [4]: 290 nM
- inhibition in vivo at 3 % ([5]; Mus musculus): 95%

Compound: CC(C)(NC(=O)c1cc2c(n(CC3CCCCC3)c1=O)CCCCCC2)C(=O)C1CCCC(C(N)=O)N1 (centres unmarked) [Compound I-580]
- Ki [1]: 7.4 nM
- Ki [2]: 24 nM
- IC50 [3]: 48 nM
- IC50 [4, 7]: 41 nM
- inhibition in vivo at 3 % ([5]; Mus musculus): 98%

Compound: CCc1c(C)cc(C(=O)N[C@H](C(=O)NC(CO)CO)C(C)(C)C)c(=O)n1CC1CCCCC1 [Compound I-038]
- Ki [1]: < 2 nM
- Ki [2]: 7.1 nM
- IC50 [3]: < 2 nM
- IC50 [4, 7]: 34 nM
- inhibition in vivo at 3 % ([5]; Mus musculus): 67%

Compound: O=C(N[C@@H](C(=O)O)c1ccccc1)c1cc2c(n(CCCC(F)(F)F)c1=O)CCCCCC2 [Compound X-54]
- Ki [1]: < 2 nM
- Ki [2]: 93 nM
- IC50 [3]: 3.7 nM
- IC50 [4, 7]: > 2000 nM
- inhibition in vivo at 1 % ([5]; Mus musculus): 100%

Compound: CC(C)CCn1c2c(cc(C(=O)N[C@@H](C(=O)O)c3ccccc3)c1=O)CCCCCC2 [Compound I-424]
- Ki [1]: 3 nM
- Ki [2, 6]: 357 nM
- IC50 [3]: 5.9 nM
- IC50 [4]: > 2000 nM
- inhibition in vivo at 3 % ([5]; Mus musculus): 62%

Compound: O=C(NC(C(=O)O)C(F)(F)F)c1cc2c(n(CC3CCCCC3)c1=O)CCCCCC2 (centres unmarked) [Compound X-229]
- Ki [1]: 12 nM
- Ki [2, 6]: 482 nM
- IC50 [3]: 27 nM
- IC50 [4]: 369 nM
- inhibition in vivo at 0.5 % ([5]; Mus musculus): 105%

Compound: O=C(O)CC1(NC(=O)c2cc3c(n(CC4CCCCC4)c2=O)CCCCCC3)CCCCC1 [II-073]
- Ki [1]: 6.2 nM
- Ki [2]: 88 nM
- IC50 [3]: 0.2 nM
- IC50 [4, 7]: 11 nM
- inhibition in vivo at 3 % ([5]; Mus musculus): 58%

Compound: CC(=O)N1CCN(C(=O)C(C)(C)NC(=O)c2cc3c(n(CC4CCCCC4)c2=O)CCCCCC3)CC1 [Compound I-579]
- Ki [1]: 7.3 nM
- Ki [2, 6]: 158 nM
- IC50 [3]: 27 nM
- IC50 [4]: 431 nM
- inhibition in vivo at 3 % ([5]; Mus musculus): 99%

Compound: CC(C)(CNCCC(N)=O)NC(=O)c1cc2c(n(CC3CCCCC3)c1=O)CCCCCC2 [Compound I-588]
- Ki [1]: 10 nM
- Ki [2]: 41 nM
- IC50 [3]: 5.7 nM
- IC50 [4, 7]: 72 nM
- inhibition in vivo at 1 % ([5]; Mus musculus): 81%

Compound: CC(C)(NC(=O)c1cc2c(n(CC3CCCCC3)c1=O)CCCCCC2)C(=O)N1CCC(NS(C)(=O)=O)CC1 [Compound I-572]
- Ki [1, 8]: 4.4 nM
- Ki [2, 6]: 39 nM
- IC50 [3]: 2.4 nM
- IC50 [4, 7]: 397 nM
- inhibition in vivo at 1 % ([5]; Mus musculus): 97%

Compound: CCNC(=O)C1CCCN(C(=O)C(C)(C)NC(=O)c2cc3c(n(CC4CCCCC4)c2=O)CCCCCC3)C1 (centres unmarked) [Compound I-595]
- Ki [1]: 9.5 nM
- Ki [2, 6]: 354 nM
- IC50 [3]: 30 nM
- IC50 [4]: 1210 nM
- inhibition in vivo at 3 % ([5]; Mus musculus): 108%

Compound: O=C(O)Cc1csc(NC(=O)c2cc3c(n(CC4CCCCC4)c2=O)CCCCCC3)n1 [IV-023]
- Ki [1, 8]: 22 nM
- Ki [2, 6]: 425 nM
- IC50 ([3]; inhibition of forskolin (4 μM)-stimulated cAMP formation, CHO cells expressing human CB2, read-out: Agonist activity (nM) CB2): 11 nM
- IC50 ([4]; inhibition of forskolin (4 μM)-stimulated cAMP formation, CHO cells expressing human CB1, read-out: Agonist activity (nM) CB1): 398 nM
- inhibition in vivo at 3 % ([5]; applied as acetone solution 50 μL, concentration 3.0%, mouse, Compound 48/80): 116%

Compound: CC(C)NC(=O)NC1CCN(C(=O)C(C)(C)NC(=O)c2cc3c(n(CC4CCCCC4)c2=O)CCCCCC3)CC1 [Compound I-599]
- Ki [1]: 4 nM
- Ki [2]: 37 nM
- IC50 [3]: 13 nM
- IC50 [4, 7]: 37 nM
- inhibition in vivo at 0.5 % ([5]; Mus musculus): 67%

Compound: CC(C)NC(=O)N1CCN(C(=O)C(C)(C)NC(=O)c2cc3c(n(CC4CCCCC4)c2=O)CCCCCC3)CC1 [Compound I-604]
- Ki [1]: 2.5 nM
- Ki [2]: 16 nM
- IC50 [3]: 4.8 nM
- IC50 [4, 7]: 55 nM
- inhibition in vivo at 3 % ([5]; Mus musculus): 95%

Compound: CC(C)(NC(=O)c1cc2c(n(CC3CCCCC3)c1=O)CCCCCC2)C(=O)Nc1ccc(NS(C)(=O)=O)cc1 [Compound I-533]
- Ki [1]: < 2 nM
- Ki [2]: 21 nM
- IC50 [3]: < 2 nM
- IC50 [4, 7]: > 2000 nM
- inhibition in vivo at 3 % ([5]; Mus musculus): 73%

Compound: CC(C)(NC(=O)c1cc2c(n(CC3CCCCC3)c1=O)CCCCCC2)C(=O)NCC(N)=O [Compound I-054]
- Ki [1, 8]: 6 nM
- Ki [2, 6]: 11 nM
- IC50 [3]: 15 nM
- IC50 [4, 7]: 51 nM
- inhibition in vivo at 2 % ([5]; Mus musculus): 63%
